Assay results published in patent US20080249035A1, “Polymorph of Clarithromycin (Form V)” (Gruenenthal GmbH, priority 2007, published 2008).

Experiment: Interconversion tests in acetone (thermodynamic/physical stability of polymorphic forms)
Type: physicochemical
Method: To investigate physical stability in comparison with the known forms form I and form II, the following experiments were carried out (interconversion tests): • a) about 100 mg of form I and approx. 100 mg of form II were put in a 20 ml vial and suspended in 2.5 ml acetone p.a. • b) about 100 mg of form V and approx. 100 mg of form I were put in a 20 ml vial and suspended in 2.5 ml acetone p.a. • c) about 100 mg of form V and approx. 100 mg of form II were put in a 20 ml vial and suspended in 2.5 ml acetone p.a.
All three suspensions were first shaken at room temperature (approx. 20° C.) on a PLS synthesizer at 400 rpm for approx. 2 h. For 20 h the temperature of the suspensions was raised to 40° C. and then left to cool to room temperature (approx. 20° C.) again.
Then the solids were filtered with suction on a G4 frit, made into a slurry with 0.5 ml acetone p.a., washed, and then dried by suction in an air stream, applying a light vacuum.
The crystalline solids were in each case characterized by DSC, XRPD, Raman and TG investigations.

| Compound | Product (polymorphic form obtained from the starting mixture in the interconversion test) (approx. 100 mg of each form suspended in 2.5 ml acetone, approx. 2 h at room temperature (approx. 20° C.), 20 h at 40° C., cooled to room temperature, solids characterized by DSC, XRPD, Raman, TG) | Relative thermodynamic stability of the forms under the test conditions (interconversion tests in acetone, 20 to 40° C.) |
| --- | --- | --- |
| CC[C@H]1OC(=O)[C@H](C)[C@@H](O[C@H]2C[C@@](C)(OC)[C@@H](O)[C@H](C)O2)[C@H](C)[C@@H](O[C@@H]2O[C@H](C)C[C@H](N(C)C)[C@H]2O)[C@](C)(OC)C[C@@H](C)C(=O)[C@H](C)[C@@H](O)[C@]1(C)O [Form I/Form II, clarithromycin] | Form II |  |
| CC[C@H]1OC(=O)[C@H](C)[C@@H](O[C@H]2C[C@@](C)(OC)[C@@H](O)[C@H](C)O2)[C@H](C)[C@@H](O[C@@H]2O[C@H](C)C[C@H](N(C)C)[C@H]2O)[C@](C)(OC)C[C@@H](C)C(=O)[C@H](C)[C@@H](O)[C@]1(C)O [Form II, clarithromycin] |  | thermodynamically more stable than form V as well as more stable than form I |
